{
  "source": "ChEMBL document CHEMBL5344478",
  "about": "“Cytochrome bd oxidase: an emerging anti-tubercular drug target” (RSC Med Chem, 2024)",
  "key": {"[1]": {"assay": "Inhibition of Mycobacterium bovis BCG cytochrome bd oxidase with ATP synthase overexpression inverted membrane vesicles", "format": "cell membranes, Mycobacterium tuberculosis variant bovis, Membrane vesicle"}, "[2]": {"assay": "Inhibition of wild type Mycobacterium bovis BCG cytochrome bd oxidase assessed as inhibition of oxygen consumption rate measured after 5 days by Methylene blue dye based assay", "set-up": "species or system Mycobacterium tuberculosis variant bovis"}},
  "data": [
    {"smiles": "c1ccc(CCNc2ncnc3ccccc23)cc1", "values": [
      {"measurement": "IC50", "setting": "[1]", "value": 11, "unit": "µM"}
    ]},
    {"smiles": "FC(F)(F)c1ccc(Oc2ccc(Nc3ncnc4ccccc34)cc2)cc1", "values": [
      {"measurement": "IC50", "setting": "[2]", "value": 800, "unit": "nM"},
      {"measurement": "IC50", "setting": "[1]", "value": 0.5, "unit": "µM"}
    ]},
    {"smiles": "NC(=O)NC(=O)c1nc(-c2cc3ccccc3o2)c(N)nc1N", "values": [
      {"measurement": "IC50", "setting": "[1]", "value": 21.2, "unit": "µM"}
    ]},
    {"smiles": "CCc1nc2ccc(Cl)cn2c1C(=O)NCc1ccc(N2CCC(c3ccc(OC(F)(F)F)cc3)CC2)cc1", "note": "[TELACEBEC]", "values": [
      {"measurement": "IC50", "setting": "[1]", "value": 6.2, "unit": "µM"}
    ]}
  ]
}
